For one compound, Fulvestrant solubility achieved and solubility results are on record in patent US20170027958A1, “FULVESTRANT COMPOSITIONS” (THEMIS MEDICARE LIMITED, priority 2013, published 2017).

Where two headings read alike, the source gives them in different places.

The series is described as follows: Solubility studies of fulvestrant in solvents, co-solvents, oils and release rate modifiers. Format: physicochemical. To be noted: for solubility: read-out: Fulvestrant solubility achieved. As to the method:
Solubility studies of fulvestrant were performed using various combinations of solvent, co-solvents, oils and release rate modifiers. The resultant data are shown herein below Table 1.

The solubility is the concentration that dissolves in the medium under given conditions. As for `C[C@]12CC[C@@H]3c4ccc(O)cc4C[C@@H](CCCCCCCCC[S+]([O-])CCCC(F)(F)C(F)(F)F)[C@H]3[C@@H]1CC[C@@H]2O` (stereo partly drawn) [Fulvestrant, 7-alpha-[9-[(4,4,5,5,5-pentafluoropentyl)sulfinyl]nonyl]estra-1,3,5(10)-triene-3,17-beta-diol], the Fulvestrant solubility achieved (Benzyl alcohol (4 v/v %):Diethylene glycol monoethyl ether (q.s. to 1.7 mL)) came to 300 mg/1.7 mL. The solubility reads like this: (Benzyl alcohol (10 v/v %):Castor oil (50 v/v %):Diethylene glycol monoethyl ether (q.s. to 1 mL)) 151 mg/mL; (benzyl alcohol / diethylene glycol monoethyl ether mixture, Benzyl alcohol (2 v/v %):Diethylene glycol monoethyl ether (q.s. to 1 mL)) 200 mg/mL.
